# Assay results reported in US7264932B2, “Nuclease inhibitor cocktail” (Applera Corporation, priority 1999, dated 2007).
# Columns and labels:
# Type in all cases: biochemical
# RNase T1 = biological target: T1, RNase T1 (Aspergillus oryzae, UniProt P00651); assay: Radiolabeled RNA probe degradation gel assay, RNase T1; conditions: 0.15 U RNase T1
# T1 sequence (P00651 27-130): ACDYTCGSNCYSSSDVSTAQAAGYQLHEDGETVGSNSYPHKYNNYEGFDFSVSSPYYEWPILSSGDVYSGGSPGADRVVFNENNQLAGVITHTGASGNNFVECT
# Method: (§1) The activity of anti-nuclease antibodies is readily determined using radiolabeled RNA or DNA to detect the inhibition of RNase or DNase by the anti-nuclease antibodies. In general, the nuclease and anti-nuclease antibody are separately diluted, typically in 1× assay buffer. Assay buffer, nuclease and anti-nuclease antibody are then added to 0.5 ml microfuge tubes. For assaying anti-RNase activity, a mixture comprising assay buffer, RNA and radiolabeled RNA is added to the microfuge tubes. The “MIX” of assay buffer, RNA and radiolabeled RNA is generally prepared by combining 10× Assay Buffer (0.9 μl/rxn), 5 mg/ml yeast RNA (0.4 μl/rxn), ^32-β actin RNA (1 μl/rxn), and nuclease-free H2O (6.7 μl/rxn) for a total of 9 μl/rxn. The tubes are vortexed and microfuged, then incubated at 37° C. for 30 minutes. After incubation, a portion of the tube contents is removed and placed into gel loading buffer. Then the tube contents and the gel loading buffer are mixed, and the combination is loaded onto a gel, typically a 8M urea/5% acrylamide gel, which is exposed to film. […]
# (§2) The activity of an anti-nuclease cocktail is readily determined using radiolabeled RNA or DNA to detect the inhibition of nuclease by anti-nuclease antibodies in the anti-nuclease cocktail. […]
# RNase A = biological target: T2, RNase A (Bos taurus, UniProt P61823); assay: Radiolabeled RNA probe degradation gel assay, RNase A; conditions: DTT up to 250 mM, at 37° C.
# T2 sequence (P61823 27-150): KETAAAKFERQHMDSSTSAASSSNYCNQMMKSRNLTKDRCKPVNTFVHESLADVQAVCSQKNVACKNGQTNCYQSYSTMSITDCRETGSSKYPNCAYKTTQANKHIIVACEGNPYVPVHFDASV
# Method: The activity of an anti-nuclease cocktail is readily determined using radiolabeled RNA or DNA to detect the inhibition of nuclease by anti-nuclease antibodies in the anti-nuclease cocktail. […] Assay buffer, nuclease and an anti-nuclease cocktail are then added to 0.5 ml microfuge tubes. A mixture comprising assay buffer, RNA or DNA and radiolabeled RNA or DNA is added to the microfuge tubes, and the tubes are vortexed and microfuged. After incubation of the tubes at 37° C. for 30 minutes, a portion of the tube contents is removed and placed into gel loading buffer. After mixing, the combination is loaded onto a gel, typically a 8M urea/5% acrylamide gel, which is exposed to film.
# Radiolabeled RNA was used to detect the inhibition of RNase A, RNase T1, and RNase 1 by specific antibodies.
# The “MIX” was prepared by combining 10× Assay Buffer (0.9 μl/rxn), 5 mg/ml yeast RNA (0.4 μl/rxn), ^32P-labeled β actin RNA (1 μl/rxn), and nuclease-free H2O (6.7 μl/rxn), for a total of 9 μl/rxn.
# 1× Assay Buffer was added first. Then Specific RNase Cocktail, Specific Anti-RNase Cocktail and MIX were added. The tubes are vortexed and microfuged, then incubated at 37° C. for 30 min (Table 9).
# At the end of the incubation time, 10 μl of solution was removed from the tube and placed into 10 μl Gel Loading Buffer II. The combination was mixed thoroughly and loaded onto a 8M urea/5% acrylamide gel. The gel was exposed to film for 30 min. at −80° C. with an intensifying screen.
# E. coli RNase 1 = E. coli RNase 1 (Escherichia coli, UniProt P21338); assay: Radiolabeled RNA probe degradation gel assay, RNase 1; conditions: 1 U RNase 1, 30 minute incubation at 37° C.
# Sequence of E. coli RNase 1 (P21338 24-268): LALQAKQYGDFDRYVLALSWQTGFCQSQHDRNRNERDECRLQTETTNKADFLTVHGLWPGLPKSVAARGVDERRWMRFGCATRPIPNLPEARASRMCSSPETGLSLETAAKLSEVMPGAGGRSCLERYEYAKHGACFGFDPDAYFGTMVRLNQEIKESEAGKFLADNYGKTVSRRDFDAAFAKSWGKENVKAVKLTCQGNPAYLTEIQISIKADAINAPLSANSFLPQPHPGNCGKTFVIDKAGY
# Method: as §1, §2
structure (smiles),measurement,setting,value
"O[C@H](CS)[C@H](O)CS (racemic) [DTT, dithiothreitol]",concentration that inhibited RNase T1,RNase T1,5–10 mM DTT inhibited 0.15 U RNase T1
same,inhibition of RNase A activity,RNase A,"At 37° C., DTT up to 250 mM did not inhibit RNase Aactivity."
same,concentration that inhibited RNase 1,E. coli RNase 1,1–3 mM DTT inhibited 1 U RNase 1 during 30 minute incubation at 37 °C
